Like-named read-outs stand apart in the source and are kept apart here. One block for each compound: values may come before it.
Experiments:
PARP-1 enzyme = molecular target: T1, PARP-1 enzyme (Homo sapiens, UniProt P09874); experiment: PARP-1 enzymatic inhibition assay (Trevigen 96-well kit, fluorescence); type: biochemical; conditions: logit method, six concentrations, read-out: IC50 (PARP-1 enzyme inhibitory activity)
T1 construct: purchased Trevigen 4690-096-K
Protocol: All target compounds were evaluated in vitro for their PARP-1 enzyme inhibitory activity.
The procedure was according to the instructions provided by the manufacturer. […] 25 μL of 1 × Buffer was added to each well and 25 μL of appropriate 2 × NAD^+ standards were added to 1B to 1G and 2B to 2G well of 96-well plate for standard curve. 25 μL of 2 μM NAD was added to 1H and 2H for PARP control. 25 μL of 2 μM NAD was added to wells for test compounds, then serially diluted compounds were added, and 1 μL of DMSO was added to the standard well. 25 μL of PARP Mix minus enzyme was added to 1A to 1G and 25 μL of PARP Mix plus enzyme was added to PARP control and compounds well. […] Then 50 μL stop solution was added to each well, and mixed with pipette. […] Then draw the standard curve and calculate the inhibition rate of each test compound.

[1] = test system: HCC1937 (BRCA1-deficient) cells; experiment: CellTiter Glo assay for cell growth inhibition, HCC1937; conditions: HCC1937, 96 h, read-out: IC50 (BRCA-1, HCC1937)
Protocol: (§1) The growth inhibition potential of test compounds was determined on BRCA1-deficient cell lines HCC1937 and BRCA2-deficient cell lines CAPAN-1. The stock solutions of test compounds were dissolved in DMSO and serially diluted to the required concentrations for 9 doses. […] 60 μL medium was removed from each well and plates were kept at room temperature for 30 min. 60 μL reagent (Celltiter Glo assay kit, Promega, Sunnyvale, CA, USA) per well was added and plates were shaked for 2 min. Cells were incubated avoiding light at room temperature for 30 min and the luminescence value was recorded by multiplate reader. GraphPad Prism 5 was used to plot effect-dose curves and calculate the IC50 values of compounds.

in vitro = conditions: human, normal human lung fibroblast (HLF) cells
Protocol: (§2) The cytotoxic potencies of test compounds were determined on normal human lung fibroblast (HLF) cells. Cells were seeded into 96-well plate at 3000 cells/well. The stock solutions of test compounds were dissolved in DMSO and serially diluted to the required concentrations for 7 doses, and the final testing concentrations for these compounds were 0.3, 1, 3, 10, 30, 100, 300 µM. […] The fraction of surviving cells after compound treatment was determined using the MTT assay.

[2] = test system: normal human lung fibroblast (HLF) cells; experiment: Cytotoxicity assay (MTT) on normal human lung fibroblast cells; conditions: 72 h
Protocol: as §2

[3] = test system: CAPAN-1 (BRCA2-deficient) cells; experiment: CellTiter Glo assay for cell growth inhibition, CAPAN-1; conditions: CAPAN-1, 96 h, read-out: IC50 (BRCA-2, CAPAN-1)
Protocol: as §1

[4] = CellTiter Glo, nine concentrations

T1 sequence (P09874 whole entry): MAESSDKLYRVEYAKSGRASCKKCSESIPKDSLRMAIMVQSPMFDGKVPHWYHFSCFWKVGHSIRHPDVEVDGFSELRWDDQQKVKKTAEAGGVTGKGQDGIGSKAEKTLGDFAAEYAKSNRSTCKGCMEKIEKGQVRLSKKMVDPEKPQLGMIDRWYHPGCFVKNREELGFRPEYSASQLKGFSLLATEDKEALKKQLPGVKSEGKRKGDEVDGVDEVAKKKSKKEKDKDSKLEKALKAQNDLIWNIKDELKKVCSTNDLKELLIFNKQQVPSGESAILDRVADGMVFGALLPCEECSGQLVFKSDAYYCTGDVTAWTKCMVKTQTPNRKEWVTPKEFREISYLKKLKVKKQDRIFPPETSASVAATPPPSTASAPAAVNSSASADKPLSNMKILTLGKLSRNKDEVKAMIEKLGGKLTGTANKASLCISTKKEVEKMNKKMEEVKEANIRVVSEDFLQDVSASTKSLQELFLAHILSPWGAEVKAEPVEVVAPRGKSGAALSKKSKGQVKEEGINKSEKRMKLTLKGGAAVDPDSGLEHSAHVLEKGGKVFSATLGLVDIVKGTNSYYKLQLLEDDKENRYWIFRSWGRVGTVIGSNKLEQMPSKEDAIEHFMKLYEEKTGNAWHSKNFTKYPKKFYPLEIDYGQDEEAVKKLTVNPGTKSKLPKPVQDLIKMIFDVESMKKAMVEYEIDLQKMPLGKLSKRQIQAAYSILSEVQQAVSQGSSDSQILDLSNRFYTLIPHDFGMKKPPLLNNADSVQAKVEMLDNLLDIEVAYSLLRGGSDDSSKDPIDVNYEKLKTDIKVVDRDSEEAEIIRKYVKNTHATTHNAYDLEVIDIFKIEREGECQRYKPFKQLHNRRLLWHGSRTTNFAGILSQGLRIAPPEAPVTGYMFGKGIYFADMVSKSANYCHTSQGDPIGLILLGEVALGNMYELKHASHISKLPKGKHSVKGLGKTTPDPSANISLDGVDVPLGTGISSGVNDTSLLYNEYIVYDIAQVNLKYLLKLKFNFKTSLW

Compound: NC(=O)c1scc2[nH]c(-c3ccc(C(=O)N4CCNCC4)cc3)nc12 [Compound 12, 2-(4-(Piperazine-1-carbonyl)phenyl)-1H-thieno[3,4-d]imidazole-4-carboxamide]
- IC50 (PARP-1 enzyme; Table 1 series (12, 13a–j)): 723 nM

Compound: NC(=O)c1scc2[nH]c(-c3ccc(C(=O)N4CCN(C(=O)c5cccs5)CC4)cc3)nc12 [Compound 13a, 2-(4-(4-(Thiophene-2-carbonyl)piperazine-1-carbonyl)phenyl)-1H-thieno[3,4-d]imidazole-4-carboxamide]
- IC50 (PARP-1 enzyme; Table 1 series (12, 13a–j)): 2570 nM

Compound: NC(=O)c1scc2[nH]c(-c3ccc(C(=O)N4CCN(C(=O)c5ccccc5)CC4)cc3)nc12 [Compound 13b, 2-(4-(4-Benzoylpiperazine-1-carbonyl)phenyl)-1H-thieno[3,4-d]imidazole-4-carboxamide]
- melting point: 270 to 272 °C
- IC50 (PARP-1 enzyme; Table 1 series (12, 13a–j)): 3760 nM

Compound: NC(=O)c1scc2[nH]c(-c3ccc(C(=O)N4CCN(C(=O)c5ccc(Br)cc5)CC4)cc3)nc12 [Compound 13c, 2-(4-(4-(4-Bromobenzoyl)piperazine-1-carbonyl)phenyl)-1H-thieno[3,4-d]imidazole-4-carboxamide]
- melting point: 294 to 296 °C
- IC50 (PARP-1 enzyme; Table 1 series (12, 13a–j)): 1870 nM

Compound: NC(=O)c1scc2[nH]c(-c3ccc(C(=O)N4CCN(C(=O)c5ccc(Cl)cc5)CC4)cc3)nc12 [Compound 13d, 2-(4-(4-(4-Chlorobenzoyl)piperazine-1-carbonyl)phenyl)-1H-thieno[3,4-d]imidazole-4-carboxamide]
- melting point: 247 to 249 °C

Compound: Cc1ccc(C(=O)N2CCN(C(=O)c3ccc(-c4nc5c(C(N)=O)scc5[nH]4)cc3)CC2)cc1 [Compound 13e, 2-(4-(4-(4-Methylbenzoyl)piperazine-1-carbonyl)phenyl)-1H-thieno[3,4-d]imidazole-4-carboxamide]
- melting point: 308 to 310 °C

Compound: NC(=O)c1scc2[nH]c(-c3ccc(C(=O)N4CCN(Cc5ccccc5)CC4)cc3)nc12 [Compound 13f, 2-(4-(4-Benzylpiperazine-1-carbonyl)phenyl)-1H-thieno[3,4-d]imidazole-4-carboxamide]
- IC50 (PARP-1 enzyme; Table 1 series (12, 13a–j)): 3860 nM

Compound: NC(=O)c1scc2[nH]c(-c3ccc(C(=O)N4CCN(Cc5ccc(Br)cc5)CC4)cc3)nc12 [Compound 13g, 2-(4-(4-(4-Bromobenzyl)piperazine-1-carbonyl)phenyl)-1H-thieno[3,4-d]imidazole-4-carboxamide]
- melting point: 285 to 288 °C

Compound: N#Cc1ccc(CN2CCN(C(=O)c3ccc(-c4nc5c(C(N)=O)scc5[nH]4)cc3)CC2)cc1 [Compound 13h, 2-(4-(4-(4-Cyanobenzyl)piperazine-1-carbonyl)phenyl)-1H-thieno[3,4-d]imidazole-4-carboxamide]
- melting point: 284 to 286 °C
- IC50 (PARP-1 enzyme; Table 1 series (12, 13a–j)): 3720 nM

Compound: Cc1ccc(CN2CCN(C(=O)c3ccc(-c4nc5c(C(N)=O)scc5[nH]4)cc3)CC2)cc1 [Compound 13i, 2-(4-(4-(4-Methylbenzyl)piperazine-1-carbonyl)phenyl)-1H-thieno[3,4-d]imidazole-4-carboxamide]
- melting point: 272 to 273 °C

Compound: NC(=O)c1scc2[nH]c(-c3ccc(C(=O)N4CCN(C(=O)C5CC5)CC4)cc3)nc12 [Compound 13j, 2-(4-(4-(Cyclopropanecarbonyl)piperazine-1-carbonyl)phenyl)-1H-thieno[3,4-d]imidazole-4-carboxamide]
- melting point: 272 to 273 °C
- IC50 (PARP-1 enzyme; Table 1 series (12, 13a–j)): 1520 nM

Compound: O=C(c1cc(Cc2n[nH]c(=O)c3ccccc23)ccc1F)N1CCN(C(=O)C2CC2)CC1 [Olaparib, olaparib, reference compound]
- IC50 ([1]; Homo sapiens): 133 ± 14.4 µM
- IC50 at 72 h (in vitro): 134 ± 3.14 µM
- Inhibition Rate ([2]; 0.3 µM): 1.88%
- Inhibition Rate ([2]; 1 µM): 1.83%
- Inhibition Rate ([2]; 3 µM): 1.10%
- Inhibition Rate ([2]; 10 µM): 1.37%
- Inhibition Rate ([2]; 30 µM): 1.04%
- Inhibition Rate ([2]; 100 µM): 29.60%
- Inhibition Rate ([2]; 300 µM): 91.45%
- IC50 ([3]; Homo sapiens): 13.4 ± 1.16 µM

Compound: C[C@]1(c2nc3c(C(N)=O)cccc3[nH]2)CCCN1 [Veliparib, veliparib, reference compound]
- IC50 [1, 4]: 127 ± 18.1 µM
- IC50 at 72 h (in vitro): ~200 µM
- Inhibition Rate ([2]; 0.3 µM): 1.00%
- Inhibition Rate ([2]; 1 µM): −0.28%
- Inhibition Rate ([2]; 3 µM): −1.20%
- Inhibition Rate ([2]; 10 µM): −1.35%
- Inhibition Rate ([2]; 30 µM): −0.06%
- Inhibition Rate ([2]; 100 µM): −0.45%
- Inhibition Rate ([2]; 300 µM): 93.64%
- IC50 [3, 4]: 57.7 ± 12.4 µM

More lines, main results first:

- melting point: 256 to 257 °C
- IC50 (PARP-1 enzyme; Table 2 series (16a–n)): 827 nM
Compound: NC(=O)c1scc2[nH]c(-c3ccccc3)nc12 [Compound 16a, 2-Phenyl-1H-thieno[3,4-d]imidazole-4-carboxamide]

- melting point: 244 to 246 °C
- IC50 (PARP-1 enzyme; Table 2 series (16a–n)): 738 nM
Compound: NC(=O)c1scc2[nH]c(-c3ccc(F)cc3)nc12 [Compound 16b, 2-(4-Fluorophenyl)-1H-thieno[3,4-d]imidazole-4-carboxamide]

- melting point: 245 to 246 °C
- IC50 (PARP-1 enzyme; Table 2 series (16a–n)): 354 nM
Compound: NC(=O)c1scc2[nH]c(-c3ccc(Cl)cc3)nc12 [Compound 16c, 2-(4-Chlorophenyl)-1H-thieno[3,4-d]imidazole-4-carboxamide]

- melting point: 202 to 204 °C
- IC50 (PARP-1 enzyme; Table 2 series (16a–n)): 1490 nM
Compound: NC(=O)c1scc2[nH]c(-c3ccccc3Cl)nc12 [Compound 16d, 2-(2-Chlorophenyl)-1H-thieno[3,4-d]imidazole-4-carboxamide]

- melting point: 210 to 212 °C
Compound: NC(=O)c1scc2[nH]c(-c3c(Cl)cccc3Cl)nc12 [Compound 16e, 2-(2,6-Dichlorophenyl)-1H-thieno[3,4-d]imidazole-4-carboxamide]

- melting point: 283 to 285 °C
- IC50 (PARP-1 enzyme; Table 2 series (16a–n)): 548 nM
Compound: NC(=O)c1scc2[nH]c(-c3ccc(C(F)(F)F)cc3)nc12 [Compound 16f, 2-(4-(Trifluoromethyl)phenyl)-1H-thieno[3,4-d]imidazole-4-carboxamide]

- IC50 ([1]; Homo sapiens): 31.3 ± 0.35 µM
- IC50 (PARP-1 enzyme; Table 2 series (16a–n)): 151 nM
- IC50 at 72 h (in vitro): 77.6 ± 1.5 µM
Compound: NC(=O)c1scc2[nH]c(-c3cccc(C(F)(F)F)c3)nc12 [Compound 16g, 2-(3-(Trifluoromethyl)phenyl)-1H-thieno[3,4-d]imidazole-4-carboxamide]
- Inhibition Rate ([2]; 0.3 µM): −1.65%
- Inhibition Rate ([2]; 1 µM): −1.02%
- Inhibition Rate ([2]; 3 µM): −0.63%
- Inhibition Rate ([2]; 10 µM): 0.76%
- Inhibition Rate ([2]; 30 µM): 4.13%
- Inhibition Rate ([2]; 100 µM): 69.88%
- Inhibition Rate ([2]; 300 µM): 99.40%
- IC50 ([3]; Homo sapiens): 38.6 ± 6.75 µM

- melting point: 241 to 243 °C
Compound: NC(=O)c1scc2[nH]c(-c3ccccc3C(F)(F)F)nc12 [Compound 16h, 2-(2-(Trifluoromethyl)phenyl)-1H-thieno[3,4-d]imidazole-4-carboxamide]

- IC50 ([1]; Homo sapiens): 32.9 ± 4.21 µM
- IC50 (PARP-1 enzyme; Table 2 series (16a–n)): 136 nM
- IC50 at 72 h (in vitro): 94.1 ± 2.2 µM
Compound: NC(=O)c1scc2[nH]c(-c3ccc([N+](=O)[O-])cc3)nc12 [Compound 16i, 2-(4-Nitrophenyl)-1H-thieno[3,4-d]imidazole-4-carboxamide]
- Inhibition Rate ([2]; 0.3 µM): −0.05%
- Inhibition Rate ([2]; 1 µM): 1.33%
- Inhibition Rate ([2]; 3 µM): 0.99%
- Inhibition Rate ([2]; 10 µM): 3.37%
- Inhibition Rate ([2]; 30 µM): 2.56%
- Inhibition Rate ([2]; 100 µM): 55.26%
- Inhibition Rate ([2]; 300 µM): 99.63%
- IC50 ([3]; Homo sapiens): 26.8 ± 1.55 µM

- IC50 ([1]; Homo sapiens): 55.14 ± 0.24 µM
- IC50 (PARP-1 enzyme; Table 2 series (16a–n)): 102 nM
- IC50 at 72 h (in vitro): > 300 µM
Compound: COc1ccc(-c2nc3c(C(N)=O)scc3[nH]2)cc1 [Compound 16j, 2-(4-Methoxyphenyl)-1H-thieno[3,4-d]imidazole-4-carboxamide]
- Inhibition Rate ([2]; 0.3 µM): 0.68%
- Inhibition Rate ([2]; 1 µM): 2.85%
- Inhibition Rate ([2]; 3 µM): 2.68%
- Inhibition Rate ([2]; 10 µM): 6.95%
- Inhibition Rate ([2]; 30 µM): 9.43%
- Inhibition Rate ([2]; 100 µM): 12.63%
- Inhibition Rate ([2]; 300 µM): 32.37%
- IC50 ([3]; Homo sapiens): 46.6 ± 0.62 µM

- melting point: 230 to 242 °C
- IC50 (PARP-1 enzyme; Table 2 series (16a–n)): 1490 nM
Compound: COc1cccc(-c2nc3c(C(N)=O)scc3[nH]2)c1 [Compound 16k, 2-(3-Methoxyphenyl)-1H-thieno[3,4-d]imidazole-4-carboxamide]

- IC50 ([1]; Homo sapiens): 49.2 ± 5.43 µM
- IC50 (PARP-1 enzyme; Table 2 series (16a–n)): 43 nM
- IC50 at 72 h (in vitro): > 300 µM
Compound: Cc1ccc(-c2nc3c(C(N)=O)scc3[nH]2)cc1 [Compound 16l, 2-(p-Tolyl)-1H-thieno[3,4-d]imidazole-4-carboxamide]
- Inhibition Rate ([2]; 0.3 µM): 0.42%
- Inhibition Rate ([2]; 1 µM): 3.80%
- Inhibition Rate ([2]; 3 µM): 7.12%
- Inhibition Rate ([2]; 10 µM): 10.16%
- Inhibition Rate ([2]; 30 µM): 13.65%
- Inhibition Rate ([2]; 100 µM): 23.20%
- Inhibition Rate ([2]; 300 µM): 27.94%
- IC50 ([3]; Homo sapiens): 38.8 ± 1.6 µM

- melting point: 254 to 255 °C
- IC50 (PARP-1 enzyme; Table 2 series (16a–n)): 5790 nM
Compound: Cc1cccc(-c2nc3c(C(N)=O)scc3[nH]2)c1 [Compound 16m, 2-(m-Tolyl)-1H-thieno[3,4-d]imidazole-4-carboxamide]

- melting point: 222 to 223 °C
- IC50 (PARP-1 enzyme; Table 2 series (16a–n)): 328 nM
Compound: Cc1ccccc1-c1nc2c(C(N)=O)scc2[nH]1 [Compound 16n, 2-(o-Tolyl)-1H-thieno[3,4-d]imidazole-4-carboxamide]

From article PMC6273152, “Design, Synthesis, and Biological Evaluation of Novel PARP-1 Inhibitors Based on a 1H-Thieno[3,4-d] Imidazole-4-Carboxamide Scaffold” (Molecules, 2016)
